For the data set the following is noted: for aqueous solubility: pH 6.8.

Values after ≈ are worked out from the molar mass of the structure shown. A value given as a limit tells only on which side of the number the result lay.

Take `COc1cccc(NC(=O)c2c([O-])n(-c3cccc(OC)c3)n[n+]2C)c1`: the MDR1-MDCK efflux ratio was 0.637 and the aqueous solubility – broadly, how much of the substance goes into solution per volume – was 0.19 µg/mL (≈ 0.536 µM).

As to `CSc1nccc(N2Cc3cnn(Cc4ccc(F)cc4)c3C2)n1`, the MDR1-MDCK efflux ratio amounted to 0.579; the intrinsic clearance, human liver microsomes was determined as 141 mL/min/kg; the intrinsic clearance, rat liver microsomes stood at 2590 mL/min/kg.

Regarding `CC(C)C[C@@H](CO)n1cc(-c2ccccc2Cn2cccn2)nn1`, the MDR1-MDCK efflux ratio was 6.29; the intrinsic clearance, human liver microsomes was found to be 101 mL/min/kg; the intrinsic clearance, rat liver microsomes was determined as 513 mL/min/kg; the aqueous solubility is 17 µg/mL (≈ 52.3 µM).

As to `c1ccc2c(N3CCn4c(nnc4C4CC4)C3)ncnc2c1`, the MDR1-MDCK efflux ratio was found to be 16; the intrinsic clearance, human liver microsomes is at most 4.74 mL/min/kg; the intrinsic clearance, rat liver microsomes was at most 10.7 mL/min/kg; the aqueous solubility came out at 43.4 µg/mL (≈ 148 µM).

In the case of `CC(C)c1ccc(-c2cc3c(=O)n(CCC(=O)NCCN(C)C)ccn3n2)cc1`, the MDR1-MDCK efflux ratio came to 86.7; the intrinsic clearance, human liver microsomes came to 182 mL/min/kg; the intrinsic clearance, rat liver microsomes came out at 142 mL/min/kg; the aqueous solubility is 55.7 µg/mL (≈ 141 µM).

For `Cc1cc(F)ccc1S(=O)(=O)N1CCCc2cnc(N3CCOCC3)nc21`, the MDR1-MDCK efflux ratio was determined as 0.723 and the aqueous solubility amounted to 0.31 µg/mL (≈ 0.79 µM).

Turning to `NC(=O)COc1ncnc2ccccc12`, the MDR1-MDCK efflux ratio turned out to be 1.27; the intrinsic clearance, human liver microsomes was at most 4.74 mL/min/kg; the intrinsic clearance, rat liver microsomes is at most 10.7 mL/min/kg; the aqueous solubility stood at 47.9 µg/mL (≈ 235 µM).

Regarding `Cc1ccc(NC(=O)CN(C)C(=O)c2ccccc2F)nc1`, the MDR1-MDCK efflux ratio is 1.43; the intrinsic clearance, human liver microsomes is at most 4.74 mL/min/kg; the intrinsic clearance, rat liver microsomes came out at 103 mL/min/kg; the aqueous solubility was 54 µg/mL (≈ 179 µM).

Regarding `Fc1ccccc1-c1noc(-c2ccc(NCCc3cnccn3)nc2)n1`, the MDR1-MDCK efflux ratio worked out at 0.142; the intrinsic clearance, human liver microsomes came out at 10.2 mL/min/kg; the intrinsic clearance, rat liver microsomes turned out to be 749 mL/min/kg; the aqueous solubility came to 5.51 µg/mL (≈ 15.2 µM).

As to `CC(=O)NC1(C(=O)N2CCCN(C3CC3)CC2)CCC(C)CC1` (stereo unspecified), the MDR1-MDCK efflux ratio worked out at 37.7; the intrinsic clearance, human liver microsomes stood at 27.7 mL/min/kg; the intrinsic clearance, rat liver microsomes came to 80.8 mL/min/kg; the aqueous solubility came out at 53.8 µg/mL (≈ 167 µM).

With `CS(=O)(=O)CCNc1ccc2ccc(F)cc2n1`, the MDR1-MDCK efflux ratio came to 0.652; the intrinsic clearance, human liver microsomes worked out at 15.6 mL/min/kg; the intrinsic clearance, rat liver microsomes amounted to 76.4 mL/min/kg; the aqueous solubility turned out to be 53.5 µg/mL (≈ 199 µM).

Consider `CCCC(=O)NCC(=O)Nc1cnc(N2CCN(C)CC2)nc1`, for which the MDR1-MDCK efflux ratio was 10.9; the intrinsic clearance, human liver microsomes was at most 4.74 mL/min/kg; the intrinsic clearance, rat liver microsomes is at most 10.7 mL/min/kg; the aqueous solubility was determined as 51.2 µg/mL (≈ 160 µM).

Take `Cc1ccc(F)cc1NCc1csc(-c2cnn(C)c2)n1`: the intrinsic clearance, human liver microsomes came out at 40.2 mL/min/kg and the intrinsic clearance, rat liver microsomes turned out to be 402 mL/min/kg.

Consider `COc1ccc(C)cc1-n1ccc(C(=O)Nc2c3c(nn2C)CCC3)n1`, for which the MDR1-MDCK efflux ratio amounted to 1.45; the intrinsic clearance, human liver microsomes turned out to be 46.5 mL/min/kg; the intrinsic clearance, rat liver microsomes stood at 255 mL/min/kg; the aqueous solubility was 33.2 µg/mL (≈ 94.5 µM).

Turning to `Cc1nc(CC2CCN(S(=O)(=O)c3c(C)noc3C)CC2)cc(NC2CCCC2)n1`, the MDR1-MDCK efflux ratio amounted to 11.4; the intrinsic clearance, human liver microsomes was 249 mL/min/kg; the intrinsic clearance, rat liver microsomes worked out at 2420 mL/min/kg; the aqueous solubility was determined as 60.5 µg/mL (≈ 139 µM).

Take `O=c1c2ccccc2nc2n1CCN(Cc1ccc(F)cc1)CC2`: the MDR1-MDCK efflux ratio stood at 0.471; the intrinsic clearance, human liver microsomes amounted to 37.1 mL/min/kg; the intrinsic clearance, rat liver microsomes is 565 mL/min/kg.

In the case of `COc1ccc2c(c1)CN(C(=O)c1cc(C3CC3)[nH]n1)CC2`, the MDR1-MDCK efflux ratio turned out to be 1.06; the intrinsic clearance, human liver microsomes came to 63.1 mL/min/kg; the intrinsic clearance, rat liver microsomes amounted to 2860 mL/min/kg; the aqueous solubility worked out at 13.6 µg/mL (≈ 45.9 µM).

For `O=C(O)c1cnn(-c2ccncc2)c1C(F)F`, the intrinsic clearance, human liver microsomes was at most 4.74 mL/min/kg; the intrinsic clearance, rat liver microsomes is at most 10.7 mL/min/kg; the aqueous solubility came to 31.9 µg/mL (≈ 133 µM).

For `CC(C)(O)CNc1ncc(-c2ccnc(Nc3ccnc(Cl)c3)n2)c(CC2CC2)n1`, the MDR1-MDCK efflux ratio was 10.5; the intrinsic clearance, human liver microsomes stood at 23.6 mL/min/kg; the intrinsic clearance, rat liver microsomes came to 149 mL/min/kg; the aqueous solubility stood at 21.9 µg/mL (≈ 51.5 µM).

Regarding `O=c1c(=O)n(-c2ccc(F)c(F)c2)ccn1Cc1ccccc1Cl`, the MDR1-MDCK efflux ratio amounted to 0.696 and the aqueous solubility is 0.37 µg/mL (≈ 1.06 µM).

For the molecule `O=c1[nH]c2nc(N3CCc4ccccc4C3)ncc2c(=O)n1-c1ccccc1`, the MDR1-MDCK efflux ratio worked out at 0.445 and the aqueous solubility was determined as 0.2 µg/mL (≈ 0.539 µM).

For the molecule `CN(C/C=C/C(=O)N1CCC[C@@H](n2nc(-c3ccc(Oc4ccccc4)cc3)c3c(N)ncnc32)C1)CCCCNC(=O)CCCC(=O)NCCCOCCOCCOCCCNC(=O)CCCC[C@@H]1SC[C@@H]2NC(=O)N[C@@H]21`, the intrinsic clearance, human liver microsomes was determined as 127 mL/min/kg and the intrinsic clearance, rat liver microsomes stood at 87.3 mL/min/kg.

`CC(=O)NCc1ccc(-c2ccccc2C(=O)O)cc1` showed an aqueous solubility of 31.2 µg/mL (≈ 116 µM).

`CC(C)N(C(=O)Cn1cccc2cc(-c3ccco3)nc1-2)C(C)C`: the MDR1-MDCK efflux ratio was determined as 1.81; the intrinsic clearance, human liver microsomes amounted to 373 mL/min/kg; the intrinsic clearance, rat liver microsomes stood at 1790 mL/min/kg.

Take `CCONC(=O)c1sc(C)nc1C`: the MDR1-MDCK efflux ratio was 0.788; the intrinsic clearance, human liver microsomes is at most 4.74 mL/min/kg; the intrinsic clearance, rat liver microsomes is at most 10.7 mL/min/kg; the aqueous solubility was 29 µg/mL (≈ 145 µM).

In the case of `CONC(=O)c1c(C)nn(C)c1Cl`, the MDR1-MDCK efflux ratio was 0.868; the intrinsic clearance, human liver microsomes was at most 4.74 mL/min/kg; the intrinsic clearance, rat liver microsomes is at most 10.7 mL/min/kg.

With `Cc1cc(F)ccc1C(=O)NCc1ccc(O)c(O)c1`, the intrinsic clearance, human liver microsomes is at most 4.74 mL/min/kg; the intrinsic clearance, rat liver microsomes amounted to 83.9 mL/min/kg; the aqueous solubility turned out to be 40.5 µg/mL (≈ 147 µM).

On to `Cc1cnc(-n2cnnc2)c(-c2cccc(Cl)c2Cl)c1`, for which the MDR1-MDCK efflux ratio turned out to be 2.25; the intrinsic clearance, human liver microsomes came out at 6.9 mL/min/kg; the intrinsic clearance, rat liver microsomes was 165 mL/min/kg; the aqueous solubility is 18.6 µg/mL (≈ 61 µM).

For `CCCCC1=NC2(CCCC2)C(=O)N1Cc1ccc(-c2ccccc2-c2nnn[nH]2)cc1`, the MDR1-MDCK efflux ratio is 75.6; the intrinsic clearance, human liver microsomes was found to be 9.16 mL/min/kg; the intrinsic clearance, rat liver microsomes was determined as 108 mL/min/kg; the aqueous solubility was determined as 29.5 µg/mL (≈ 68.7 µM).

As for `CC(C)(C)c1csc(NC(=O)C2CC2)n1`, the MDR1-MDCK efflux ratio was found to be 0.634; the intrinsic clearance, human liver microsomes turned out to be 20.2 mL/min/kg; the intrinsic clearance, rat liver microsomes came to 89 mL/min/kg; the aqueous solubility is 29.2 µg/mL (≈ 130 µM).

For `Cc1cccn(Cc2cccc(C#N)c2)c1=O`, the MDR1-MDCK efflux ratio stood at 0.69; the intrinsic clearance, human liver microsomes was at most 4.74 mL/min/kg; the intrinsic clearance, rat liver microsomes turned out to be 28.8 mL/min/kg; the aqueous solubility turned out to be 30.9 µg/mL (≈ 138 µM).

Molecule `Nc1ccc2c(c1)ncn2-c1ccccc1` displayed an intrinsic clearance, human liver microsomes of 7.59 mL/min/kg and an intrinsic clearance, rat liver microsomes of 25.3 mL/min/kg.

For the molecule `CN(Cc1ccc(N)nc1)c1ncccn1`, the MDR1-MDCK efflux ratio was determined as 0.62; the intrinsic clearance, human liver microsomes was at most 4.74 mL/min/kg; the intrinsic clearance, rat liver microsomes is 22.8 mL/min/kg; the aqueous solubility came out at 28.5 µg/mL (≈ 132 µM).

On to `Cc1cc(C)n2nc(C)c(C(=O)NCCc3nnc(C)s3)c2n1`, for which the MDR1-MDCK efflux ratio came out at 6.5; the intrinsic clearance, human liver microsomes was at most 4.74 mL/min/kg; the intrinsic clearance, rat liver microsomes was 33.1 mL/min/kg.

`O=C(Nc1nc2ccccc2[nH]1)c1ccccc1` registered an aqueous solubility of 1.65 µg/mL (≈ 6.95 µM).

As for `CN(C)c1ncc(CN2CCC(Cc3ccc(F)cc3)CC2)s1`, the intrinsic clearance, human liver microsomes is 43.1 mL/min/kg and the intrinsic clearance, rat liver microsomes is 2570 mL/min/kg.

`Cc1ccc(Cn2nc(C(=O)N[C@@H]3C(C)(C)[C@@H]4CC[C@@]3(C)C4)cc2-c2ccc(Cl)c(C)c2)cc1`: the MDR1-MDCK efflux ratio was found to be 0.636; the intrinsic clearance, human liver microsomes was determined as 181 mL/min/kg; the intrinsic clearance, rat liver microsomes stood at 676 mL/min/kg; the aqueous solubility came out at 1.29 µg/mL (≈ 2.71 µM).

For the molecule `CC(C)C(=O)N1CCn2nc(CNC3CCc4ccccc4CC3)cc2C1`, the MDR1-MDCK efflux ratio stood at 27.1; the intrinsic clearance, human liver microsomes is at most 4.74 mL/min/kg; the intrinsic clearance, rat liver microsomes came to 205 mL/min/kg.

For the molecule `O=C(Nc1ccc(Cl)cc1)C(=O)N(C1CCCC1)C1CC1`, the aqueous solubility is 29.4 µg/mL (≈ 95.8 µM).

For the molecule `Cc1ccc(NC(=O)c2cc(F)cc(F)c2)nc1`, the intrinsic clearance, human liver microsomes is 276 mL/min/kg; the intrinsic clearance, rat liver microsomes was 285 mL/min/kg; the aqueous solubility was determined as 7.52 µg/mL (≈ 30.3 µM).

In the case of `COC(C)(C)C(=O)Nc1ccnc(C(C)(C)C)n1`, the MDR1-MDCK efflux ratio is 0.599; the intrinsic clearance, human liver microsomes was 10.9 mL/min/kg; the intrinsic clearance, rat liver microsomes came out at 106 mL/min/kg.

In turn, `N#CCc1ccc(NC(=O)C2CC2)cc1` yielded an aqueous solubility of 30.6 µg/mL (≈ 153 µM).

`CO[C@H]1[C@H](C2(C)O[C@@H]2CC=C(C)C)[C@]2(CC[C@H]1OC(=O)/C=C/c1ccc(OCCN(C)C)cc1)CO2` (stereo partly specified): the intrinsic clearance, human liver microsomes worked out at 210 mL/min/kg and the intrinsic clearance, rat liver microsomes was 795 mL/min/kg.

Consider `Cc1cc2c(=O)n3c(nc2s1)CCNCC3`, for which the intrinsic clearance, human liver microsomes is at most 4.74 mL/min/kg and the intrinsic clearance, rat liver microsomes was determined as 67.5 mL/min/kg.

`CC1(C)Cc2cc(CN3CCC4(CC3)NC(=O)N(Cc3ccccc3)C4=O)ccc2O1`: the MDR1-MDCK efflux ratio came to 7.73; the intrinsic clearance, human liver microsomes came to 55.8 mL/min/kg; the intrinsic clearance, rat liver microsomes came to 294 mL/min/kg; the aqueous solubility was 36.4 µg/mL (≈ 86.6 µM).

On to `O=C(CSC1CCCC1)NCCn1nc2c(cc1=O)CCCC2`, for which the MDR1-MDCK efflux ratio was 9.14; the intrinsic clearance, human liver microsomes came out at 71 mL/min/kg; the intrinsic clearance, rat liver microsomes came out at 1180 mL/min/kg; the aqueous solubility is 60.8 µg/mL (≈ 181 µM).

In the case of `CN(C)CCSc1nnnn1-c1ccc(Br)cc1`, the MDR1-MDCK efflux ratio amounted to 0.435; the intrinsic clearance, human liver microsomes stood at 28.6 mL/min/kg; the intrinsic clearance, rat liver microsomes worked out at 1740 mL/min/kg.

In turn, `Cc1nnc(NC(C2CC2)C2CC2)c(C#N)c1C` yielded an aqueous solubility of 7.54 µg/mL (≈ 31.1 µM).

These data come from the Biogen ADME set (Fang et al. 2023).
